Experimental findings from patent US20210283163A1, “COMPOSITIONS AND METHODS FOR THE TREATMENT OF ACUTE AND CHRONIC PRURITIS” (Duke University, priority 2018, published 2021) are described below.

Data set [1] addresses T1, mTRPA1 mutants (M1-M13) (Mus musculus, UniProt Q8BLA8, P937A).
T1 construct: HA; expressed in transfected cells; host or cells: CHO cells (ATCC CRL-9096), transient transfection
The data set is described as follows: Whole-cell patch clamp in CHO cells transfected with mutant mTrpa1 cDNAs (M1-M13). The data set is classed as cell-based. Particulars: M11, single residue mutation of mP937. As for the experimental part:
(§1) Constructs. The cDNAs of mouse pcDNA3.1-Trpa1, pcDNA3.1-Trpv1, pcDNA3.1-Trpv2, pcDNA3.1-Trpv3, and pcDNA3.1-Trpv4 were kindly provided Dr. Sun Work Hwang from Korea University. Mouse Trpa1 cDNA was subcloned into pCGN-HA backbone (Addgene) using In-Fusion HD Cloning Kit (Clontech Laboratories, CA). Q5 Site-Directed Mutagenesis Kit was used to generate mTrpa1 mutant (M1-M13) based on pCGN-mTrpa1.
(§2) Cell Culture and Transfection. CD4^+ Myla cell line was cultured in RPMI 1640 media (GIBCO), supplemented with 2 mM Glutamine (GIBCO), 100 U/mL IL-2 (Sigma), 100 U/mL IL-4 (Sigma), and 10% human AB serum (Sigma). HuT 102 cell line was cultured in RPMI 1640 supplemented with pyruvate, HEPES, and 10% (v/v) fetal bovine serum (HyClone). HEK293-hTRPA1 stable cell line was cultured in MEM (GIBCO) containing 2 mM Glutamine, 4 μg/mL Blasticidin, 10% FBS (v/v). B16 and CHO cells were cultured in high glucose (4.5 g/L) Dulbecco's Modified Eagle's Medium (GIBCO) containing 10% (v/v) fetal bovine serum (GIBCO). Culture media were supplemented with 50 units/mL of penicillin and 50 μg/mL streptomycin, and cultures were maintained with 5% CO2 in 37° C. incubator. Transfection (2 μg cDNA) was performed with Lipofectamine™ 2000 Reagent (Invitrogen) at 80% confluency and the transfected cells were cultured in the same media for 48 hr before electrophysiological and biochemical studies.
(§3) Whole-Cell Patch Clamp Recordings in HEK293 Cells, CHO Cells, and DRG Neurons. Whole-cell patch clamp recordings were performed at room temperature using an Axopatch-200B amplifier (Axon Instruments) with a Digidata 1440B (Axon Instruments). In this study, we only examined small-diameter mouse DRG neurons (<25 μM) and small-diameter human DRG neurons (<55 μM). The patch pipettes were pulled from borosilicate capillaries (World Precision Instruments) using a P-97 Flaming/Brown micropipette puller (Sutter Instrument). Pipette resistance was 4-6 MΩ for whole-cell and outside-out recording. For inward current recordings in mouse and human DRG neurons, HEK293 cells, and CHO cells, the internal solution contains (in mM): 140 CsCl, 10 EGTA, 10 HEPES, and 2 Mg-ATP, adjusted to pH 7.3 with CsOH. Whole cell recordings were performed in an extracellular solution that contains (in mM): 140 NaCl, 5 KCl, 2 MgCl2, 10 HEPES, and 10 glucose, adjusted to pH 7.4 with NaOH and osmolarity to 300-310 mOsm. […] Action potential recordings were performed in small-diameter DRG neurons, with the following solutions: i) internal pipette solution contains: 126 mM K-gluconate, 10 mM NaCl, 1 mM MgCl2, 10 mM EGTA, 10 mM HEPES and 2 mM Na-ATP, adjusted to pH 7.4 with KOH and osmolarity to 295-300 mOsm), and ii) extracellular solution contains: 140 mM NaCl, 5 mM KCl, 2 mM MgCl2, 2 mM CaCl2, 10 mM HEPES, 10 mM glucose, adjusted to pH 7.4 with KOH.

In data set [2] the target is T2, mTRPA1 mutants (M1-M13) (Mus musculus, UniProt Q8BLA8, L939A/P937A/Y936A).
T2 construct: HA; expressed in transfected cells; host or cells: CHO cells (ATCC CRL-9096), transient transfection
The description is as above. The data set is classed as cell-based. Conditions: M13, triple mutations (Y936, P937, and L939). As for the experimental part: as §1, §2, §3

Data set [3] deals with mice. The data set is described as follows: Pain tests for mechanical and thermal sensitivity after intraplantar injection. Conditions: miR-711 1 mM, AITC 10 mM, 10 μL. It is filed as in vivo, mouse. As for the experimental part:
Pain Tests for Mechanical and Thermal Sensitivity. Mice were habituated to the environment for at least 2 days before the testing. All the behaviors were tested blindly. […] For testing mechanical sensitivity, we confined mice in boxes (14×18×12 cm) placed on an elevated metal mesh floor and stimulated their hind paws with a series of von Frey hairs with logarithmically increasing stiffness (0.16-2.00 g, Stoelting), presented perpendicularly to the central plantar surface. We determined the 50% paw withdrawal threshold by Dixon's up-down method (Dixon, Annu. Rev. Pharmacol. Toxicol. 1980, 20, 441-462). Thermal sensitivity was tested using Hargreaves radiant heat apparatus (Hargreaves et al., Pain 1988, 32, 77-88) (IITC Life Science). For the radiant heat test, the basal paw withdrawal latency was adjusted to 10-15 s, with a cutoff of 25 s to prevent tissue damage.

Data set [4] has as its target T3, mmu-TRPA1 (Mus musculus, UniProt Q8BLA8).
T3 construct: HA; expressed in transfected cells; host or cells: CHO cells (ATCC CRL-9096), transient transfection with Lipofectamine 2000
Description: Whole-cell patch clamp in CHO cells transfected with wild-type mmu-Trpa1 cDNA. The data set is classed as cell-based. Conditions: miR-711 10 μM, AITC 50 μM. As for the experimental part:
as §1
as §2, with “studies. […]” for “studies.”
(In general: The patch-clamp technique gives a direct electrical read-out from membranes.)

Data set [5] concerns mice. The data set is described as follows: Acute pruritus induced by intradermal pruritogens, effect of peptides. The data set is classed as in vivo, mouse. Conditions: peptide 2 mM. As for the experimental part: Behavioral Assessment for Scratching (Itch) and Wiping (Pain). Mice were shaved on the cheek or nape after a brief anesthesia with isoflurane. Before experiments, mice were habituated in small plastic chambers (14×18×12 cm) daily for two days. The room temperature and humidity remained stable for all the experiments. […] After the injection, the number of scratches in 60 min was counted. A scratch was counted when a mouse lifted its hind paw to scratch the shaved region and returned the paw to the floor or to the mouth. A bout of wiping was defined as a continuous wiping movement with a forepaw directing at the area of the injection area (Shimada and LaMotte, Pain 2008, 139, 681-687). Scratching and wiping behavior was videoed for 30 min or 60 min using Sony HDR-CX610 camera. The video was subsequently played back offline and the numbers of scratches and wipes were quantified in a blinded manner.

T3 sequence (Q8BLA8 whole entry): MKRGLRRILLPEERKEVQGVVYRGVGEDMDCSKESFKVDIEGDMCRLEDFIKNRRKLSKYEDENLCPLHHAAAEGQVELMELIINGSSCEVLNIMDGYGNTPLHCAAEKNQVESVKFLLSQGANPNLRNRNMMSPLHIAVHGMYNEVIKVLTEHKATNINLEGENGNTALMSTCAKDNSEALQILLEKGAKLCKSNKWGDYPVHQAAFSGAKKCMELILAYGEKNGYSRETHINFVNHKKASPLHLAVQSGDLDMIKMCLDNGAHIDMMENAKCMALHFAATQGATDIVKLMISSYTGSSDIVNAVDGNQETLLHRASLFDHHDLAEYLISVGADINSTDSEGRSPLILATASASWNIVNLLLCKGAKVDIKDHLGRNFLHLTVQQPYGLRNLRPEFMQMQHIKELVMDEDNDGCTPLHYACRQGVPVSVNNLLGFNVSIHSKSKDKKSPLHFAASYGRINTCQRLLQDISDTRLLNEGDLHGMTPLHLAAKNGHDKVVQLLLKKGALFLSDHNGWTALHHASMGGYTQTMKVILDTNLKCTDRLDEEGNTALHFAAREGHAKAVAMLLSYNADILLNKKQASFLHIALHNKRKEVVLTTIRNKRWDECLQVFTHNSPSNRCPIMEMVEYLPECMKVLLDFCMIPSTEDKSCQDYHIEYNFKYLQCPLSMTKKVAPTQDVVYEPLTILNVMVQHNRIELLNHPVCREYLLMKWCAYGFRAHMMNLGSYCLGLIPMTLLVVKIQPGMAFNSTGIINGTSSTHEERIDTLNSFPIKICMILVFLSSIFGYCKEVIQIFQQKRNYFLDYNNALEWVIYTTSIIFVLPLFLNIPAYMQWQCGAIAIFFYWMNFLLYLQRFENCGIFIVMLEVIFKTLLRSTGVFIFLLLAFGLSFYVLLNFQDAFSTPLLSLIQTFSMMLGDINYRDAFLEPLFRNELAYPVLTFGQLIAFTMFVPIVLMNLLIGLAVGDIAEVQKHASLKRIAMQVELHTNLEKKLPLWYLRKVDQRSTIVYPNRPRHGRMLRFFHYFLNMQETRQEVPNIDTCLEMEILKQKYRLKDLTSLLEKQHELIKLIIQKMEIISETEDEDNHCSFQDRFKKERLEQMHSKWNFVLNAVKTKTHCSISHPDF
T2 sequence (Q8BLA8 whole entry Y936A/P937A/L939A): as the sequence (Q8BLA8 whole entry) above, with Y936A, P937A, L939A counted along it
T1 sequence (Q8BLA8 whole entry P937A): as the sequence (Q8BLA8 whole entry) above, with P937A counted along it

For the molecule “miR-711: mmu-miR-711: gggacccggggagagauguaag (SEQ ID NO: 5) (GGGACCCGGGGAGAGAUGUAAG; chemistry not given here)”, in data set [1], the “evoked currents in mutant” value was “markedly reduced”. Also, the current in mutant result in data set [2] is listed as “further reduction”. For the same molecule, in data set [3], the heat hyperalgesia result was “failed to induce” and the mechanical allodynia result was “failed to induce”. Further, in data set [4], the inward currents entry is “induce inward currents”.
`C=CCN=C=S` [AITC]: in data set [3], the heat hyperalgesia result was “elicited marked hyperalgesia and allodynia”; the mechanical allodynia entry is “elicited marked hyperalgesia and allodynia”. In addition, in data set [4], the inward currents result is listed as “induce inward currents”.
As to “NH2-FRNELAYPVLTFGQL-COOH (H-FRNELAYPVLTFGQL-OH) [blocking peptide]”, the “effect on miR-711-induced pruritus” value in data set [5] (15 μL intradermal, mmu-miR-711 1 mM, 10 μL) is recorded as “prevented”. For the same molecule, the “effect on acute itch induced by compound 48/80” value in data set [5] (15 μL, 48/80 50 μg/10 μL) is “no effect”. For the same molecule, the “effect on acute itch induced by chloroquine” value in data set [5] (15 μL, CQ 100 μg/10 μL) was “no effect”.
